Experimental data from patent US8741350B2, “Taste masked pharmaceutical composition” (Boehringer Ingelheim Vetmedica GmbH, priority 2011, dated 2014).
Read-outs that look alike come from different tables or passages of the source.

Tests used:
[1] = Water solubility (statement); assay type: physicochemical
[2] = background statement; cited from earlier work
[3] = Lipophilicity profile (statement); assay type: physicochemical; conditions: neutral versus acidic pH

Structure (SMILES)	water solubility in words [1]	water solubility in words [2]	lipophilicity profile in words [3]
CC#CCn1c(N2CCC[C@@H](N)C2)nc2c1c(=O)n(Cc1ncccc1C#N)c(=O)n2C.Cl [1-[(3-cyano-pyridin-2-yl)methyl]-3-methyl-7-(2-butyn-1-yl)-8-[3-(R)-amino-piperidin-1-yl]-xanthine monohydrochloride]	water soluble		
COc1ccc(CCN2CCC[C@H](CN3CCc4cc(OC)c(OC)cc4CC3=O)C2)cc1OC [Cilobradine]		highly water-soluble	
COc1ccc(CCN2CCC[C@H](CN3CCc4cc(OC)c(OC)cc4CC3=O)C2)cc1OC.Cl [cilobradine hydrochloride]		highly water-soluble	slightly more lipophilic at neutral pH values
